Results taken from paper PMC11009412, “Pathogenic mutations of human phosphorylation sites affect protein–protein interactions” (Nature Communications, 2024).
Entries after “also recorded” stand apart in the source; their conditions may differ. One block for each substance: values may come before it.

Tests used:
[1] = system: BirA*-FLAG-GATAD1 variants in Flp-In-293 cells; test: BioID proximity labelling of full-length GATAD1 variants (SILAC); format: cell-based, human; details: GATAD1 WT vs S102P, significant proteins only; for Log2_Ratio.H.L.normalized.WT_S102P_forward: forward experiment (label swap performed, sign inverted against the H/L ratio); for Log2_Ratio.H.L.normalized.WT_S102P_forward / Log2_Ratio.H.L.normalized.WT_S102P_reverse: log2 of normalized H/L ratio; for Ratio.H.L.normalized.WT_S102P_forward: forward experiment; for Log2_Ratio.H.L.normalized.WT_S102P_reverse / Ratio.H.L.normalized.WT_S102P_reverse: reverse experiment
Text: The GATAD1 gene variants were ordered in a pTwist ENTR Kozak vector from Twist Bioscience. The genes were then transferred to a pDEST_pcDNA5_BirA_FLAG_Nterm vector[97] using the Gateway Clonase II system (Thermo Fisher Scientific). The resulting vectors, pEXPR_GATAD1-WT_N-term_BirA_FLAG, pEXPR_GATAD1-S102P_N-term_BirA_FLAG, pEXPR_GATAD1-S102D_N-term_BirA_FLAG, and pEXPR_GATAD1-S102A_N-term_BirA_FLAG, were used to generate tetracycline-inducible stable Flp-In^TM-293 T-REx cells. A 6-well plate was co-transfected with 0.5 µg of the pEXPR plasmid and 1 µg of the pOG44 Flp-recombinase expression vector (Thermo Fisher Scientific) using 4.5 µg of PEI (Polysciences) as a transfection reagent. The following day, the cells were trypsinized and transferred to a 10 cm dish containing DMEM supplemented with 10% FCS and 200 µg/ml hygromycin B (Invivogen) for selection. The cells were cultured for approximately 18 days with media exchange every 3 days until visible colonies were observed. After around 18 days, the colonies were trypsinized and transferred to another 10 cm dish for further characterization and experiments.
Stable Flp-In^TM-293 cell lines expressing GATAD1 variants were cultured using SILAC light (Lys0, Arg0) and SILAC heavy (Lys8, Arg10) media, as explained in the cell culture section. After full labeling, cells were split into 15 cm dishes and were treated with 1 μg/mL tetracycline for 24 h to induce the expression of GATAD1. After the induction period, cells were incubated with 50 μM biotin overnight for proximity biotinylation. As a control, wild-type GATAD1 cells, without biotin or tetracycline addition, were used. Samples were multiplexed, as shown in Supplementary Fig. 41A with both forward and reverse label swap (n = 2). Cells were then lysed in lysis buffer (50 mM Tris-HCl pH 7.5, 150 mM NaCl, 1% Triton X-100, 1 mM EDTA, 1 mM EGTA, 0.1% SDS) with freshly added protease inhibitors and 1% sodium deoxycholate. To digest the excess DNA, 1 μl of Benzonase was added, and the samples were incubated for 20 min at 37 °C. Biotinylated proteins were enriched for 3 h at 4 °C using streptavidin-sepharose beads (GE Cat# 17-5113-01). Beads were pre-washed twice with 0.01% BSA and twice with lysis buffer. After enrichment, the beads were washed one time with lysis buffer, two times with washing buffer (50 mM HEPES-KOH pH 8.0, 100 mM KCl, 10% glycerol, 2 mM EDTA, 0.1% NP-40), and six times with 50 mM ammonium bicarbonate. Beads were resuspended in ammonium bicarbonate, and an on-bead protein digest with 1 μg of trypsin followed overnight. The next day, the digested proteins were transferred to a fresh tube and were incubated with 10 mM DTT for 30 min at 37 °C and with 55 mM iodoacetamide for 20 min at 37 °C in the dark. Samples were desalted with StageTips.
Peptides were separated using reversed-phase liquid chromatography (EASY nLC II 1200, Thermo Fisher Scientific) with self-made C18 microcolumns (20 cm long) packed with ReproSil-Pur C18-AQ 1.9 μm resin (Dr. Maisch, cat# r119.aq.0001). The chromatography system was coupled online to the electrospray ion source (Proxeon) of an Orbitrap Exploris 480 mass spectrometer (Thermo Fisher Scientific). The mobile phase consisted of buffer A (0.1% formic acid and 5% acetonitrile) and buffer B (0.1% formic acid and 80% acetonitrile). Peptides were eluted using a gradient with increasing concentrations of buffer B over 110 minutes, at a flow rate of 250 nl/min. Mass spectrometry data was acquired in data-dependent mode with settings for one full scan (resolution: 60,000; m/z range: 350–1600; normalized AGC target: 300%; maximum injection time: 10 ms), followed by top 20 MS/MS scans using higher-energy collisional dissociation (resolution: 15,000; m/z range: 200–2000; normalized AGC target: 100%; maximum injection time: 120 ms; isolation width: 1.3 m/z; normalized collision energy: 28%).
Raw files were analyzed with MaxQuant, version 2.0.3.0. […]

14-3-3 epsilon (YWHAE) = target: T1, 14-3-3 epsilon (YWHAE) (Homo sapiens, UniProt P62258); test: Isothermal titration calorimetry (ITC) of GATAD1 peptides with 14-3-3ε; format: binding; details: 18 °C, 400 µM peptide in syringe, 25 µM 14-3-3ε in chamber, 20 mM HEPES pH 7.0, 150 mM NaCl, 2 mM DTT
T1 construct: residues 1 and 236-255 are disordered and therefore not visible in the electron density; GST (N, cleaved yes); made in house; host or cells: Escherichia coli C41 (DE3)
T1 sequence (P62258 1-255): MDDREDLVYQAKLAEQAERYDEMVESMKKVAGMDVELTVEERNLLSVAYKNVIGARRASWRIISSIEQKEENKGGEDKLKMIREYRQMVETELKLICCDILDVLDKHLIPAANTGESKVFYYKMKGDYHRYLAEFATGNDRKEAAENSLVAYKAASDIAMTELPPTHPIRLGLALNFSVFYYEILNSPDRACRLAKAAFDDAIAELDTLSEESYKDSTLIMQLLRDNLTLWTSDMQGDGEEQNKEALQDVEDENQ
Procedure: The 14-3-3ε (YWHAE) cDNA was purchased from Twist Bioscience in the pTwist Chlor High Copy vector and cloned into the pGEX6P1 plasmid (GE Healthcare) for recombinant expression as a GST-fusion protein followed by a Prescission protease cleavage site. The plasmid was freshly transformed into Escherichia coli C41 (DE3) cells. Cultures were grown in terrific broth supplemented with ampicillin (100 μg/ml) at 37 °C and 80 rpm until an optical density at 600 nm of 0.7 was reached. […] Cells were harvested by centrifugation at 4000 g and frozen at −20 °C.
Following resuspension in lysis buffer (50 mM HEPES/NaOH pH 7.5, 500 mM NaCl and 3 mM Dithiothreitol (DTT)) supplemented with 1 mg deoxyribonuclease I (DNaseI, Roche) and protease inhibitor 4-(2-Aminoethyl) benzenesulfonyl fluoride hydrochloride S7(AEBSF), cells were disrupted using a microfluidizer (Microfluidics). The cell extract was centrifuged at 55,000 g for 45 min at 4 °C to remove insoluble parts. The cleared supernatant was applied onto a prepacked Glutathione Sepharose 4B column (Cytiva) equilibrated in the lysis buffer. The column was extensively washed with lysis buffer. To cleave off the GST tag, 1 mg PreScission protease was diluted in 5 ml OCC buffer (50 mM HEPES/NaOH pH 7.5, 150 mM NaCl, and 3 mM DTT), applied to the column material, and incubated overnight at 4 °C. Cleaved 14-3-3ε protein was eluted from the column using OCC buffer, concentrated and loaded onto an 16/60 S200 column (Cytiva) equilibrated in SEC buffer (20 mM HEPES/NaOH pH 7.5, 150 mM NaCl and 2 mM DTT). Pure and homogenous 14-3-3ε was concentrated to 13 mg/ml, flash-frozen in liquid nitrogen, and stored at −80 °C until further use.
GATAD1 peptides used in these experiments were obtained from JPT peptide technologies with an N-terminus in amine and a C-terminus in amide form with 95% purity. ITC experiments were performed using a PEAQ-ITC microcalorimeter (Malvern). All titrations were performed at 18 °C with 400 µM peptide in the syringe and 25 µM 14-3-3ε in the reaction chamber. The protein and the titration components were dissolved in a buffer containing 20 mM HEPES pH 7.0, 150 mM NaCl, and 2 mM DTT. Malvern software was used for data visualization and fitting. The raw ITC results can be found in Supplementary Fig. 42.

Substance: BCLAF1
Log2_Ratio.H.L.normalized.WT_S102P_forward [1]: 1.402
Ratio.H.L.normalized.WT_S102P_forward [1]: 0.3784
Log2_Ratio.H.L.normalized.WT_S102P_reverse [1]: 1.045
Ratio.H.L.normalized.WT_S102P_reverse [1]: 2.064

Substance: BOD1L1
Log2_Ratio.H.L.normalized.WT_S102P_forward [1]: 1.279
Ratio.H.L.normalized.WT_S102P_forward [1]: 0.4121
Log2_Ratio.H.L.normalized.WT_S102P_reverse [1]: 1.335
Ratio.H.L.normalized.WT_S102P_reverse [1]: 2.5226

Substance: HDGFRP2
Log2_Ratio.H.L.normalized.WT_S102P_forward [1]: 1.523
Ratio.H.L.normalized.WT_S102P_forward [1]: 0.348
Log2_Ratio.H.L.normalized.WT_S102P_reverse [1]: 1.484
Ratio.H.L.normalized.WT_S102P_reverse [1]: 2.7966

Interaction with 14-3-3ε by ITC (in words) (14-3-3 epsilon (YWHAE)): do not interact
Substance: LRNTKYKEAPAAEKK [S102E, phosphomimetic S102E mutant GATAD1 peptide]

Substance: LRNTKYKPAPAAEKK [GATAD1_Ser102Pro, GATAD1 15-mer with the disease-linked S102P mutation]
Interaction with 14-3-3ε by ITC (in words) (14-3-3 epsilon (YWHAE)): Neither the non-phosphorylated wild-type peptide nor the peptide with the disease-linked S102P mutation showed detectable binding; also recorded: do not interact

Interaction with 14-3-3ε by ITC (in words) (14-3-3 epsilon (YWHAE)): do not interact
Substance: LRNTKYKSAPAAEKK [GATAD1, wild-type non-phosphorylated GATAD1 15-mer; ITC form with C-terminus in amide form]
Interaction with 14-3-3ε by ITC (in words) (14-3-3 epsilon (YWHAE); listed as non-phosphorylated wild-type peptide): Neither the non-phosphorylated wild-type peptide nor the peptide with the disease-linked S102P mutation showed detectable binding

Substance: MED1
Log2_Ratio.H.L.normalized.WT_S102P_forward [1]: 1.28
Ratio.H.L.normalized.WT_S102P_forward [1]: 0.4118
Log2_Ratio.H.L.normalized.WT_S102P_reverse [1]: 1.018
Ratio.H.L.normalized.WT_S102P_reverse [1]: 2.0257

Substance: MGA
Log2_Ratio.H.L.normalized.WT_S102P_forward [1]: 1.435
Ratio.H.L.normalized.WT_S102P_forward [1]: 0.3699
Log2_Ratio.H.L.normalized.WT_S102P_reverse [1]: 1.064
Ratio.H.L.normalized.WT_S102P_reverse [1]: 2.0912

Substance: NCOR1
Log2_Ratio.H.L.normalized.WT_S102P_forward [1]: 1.327
Ratio.H.L.normalized.WT_S102P_forward [1]: 0.3987
Log2_Ratio.H.L.normalized.WT_S102P_reverse [1]: 1.25
Ratio.H.L.normalized.WT_S102P_reverse [1]: 2.3792

Substance: NPM1
Log2_Ratio.H.L.normalized.WT_S102P_forward [1]: 1.325
Ratio.H.L.normalized.WT_S102P_forward [1]: 0.3991
Log2_Ratio.H.L.normalized.WT_S102P_reverse [1]: 1.034
Ratio.H.L.normalized.WT_S102P_reverse [1]: 2.0483

Substance: PCF11
Log2_Ratio.H.L.normalized.WT_S102P_forward [1]: 1.509
Ratio.H.L.normalized.WT_S102P_forward [1]: 0.3515
Log2_Ratio.H.L.normalized.WT_S102P_reverse [1]: 1.2027
Ratio.H.L.normalized.WT_S102P_reverse [1]: 2.3017

Substance: PSME3
Log2_Ratio.H.L.normalized.WT_S102P_forward [1]: 1.443
Ratio.H.L.normalized.WT_S102P_forward [1]: 0.3677
Log2_Ratio.H.L.normalized.WT_S102P_reverse [1]: 1.216
Ratio.H.L.normalized.WT_S102P_reverse [1]: 2.3229

Substance: PSPGRQNSKAPKLTL [NCOA6, wild-type non-phosphorylated 15-mer]
Log2_Ratio.H.L.normalized.WT_S102P_forward [1]: 1.334
Ratio.H.L.normalized.WT_S102P_forward [1]: 0.3966
Log2_Ratio.H.L.normalized.WT_S102P_reverse [1]: 1.3003
Ratio.H.L.normalized.WT_S102P_reverse [1]: 2.4628

Substance: RBBP6
Log2_Ratio.H.L.normalized.WT_S102P_forward [1]: 1.156
Ratio.H.L.normalized.WT_S102P_forward [1]: 0.4486
Log2_Ratio.H.L.normalized.WT_S102P_reverse [1]: 1.0059
Ratio.H.L.normalized.WT_S102P_reverse [1]: 2.0082

Substance: TPR
Log2_Ratio.H.L.normalized.WT_S102P_forward [1]: 1.211
Ratio.H.L.normalized.WT_S102P_forward [1]: 0.4319
Log2_Ratio.H.L.normalized.WT_S102P_reverse [1]: 1.117
Ratio.H.L.normalized.WT_S102P_reverse [1]: 2.169

Substance: ZC3H4
Log2_Ratio.H.L.normalized.WT_S102P_forward [1]: 1.304
Ratio.H.L.normalized.WT_S102P_forward [1]: 0.405
Log2_Ratio.H.L.normalized.WT_S102P_reverse [1]: 1.071
Ratio.H.L.normalized.WT_S102P_reverse [1]: 2.1009

Substance: ZNF318
Log2_Ratio.H.L.normalized.WT_S102P_forward [1]: 1.385
Ratio.H.L.normalized.WT_S102P_forward [1]: 0.3829
Log2_Ratio.H.L.normalized.WT_S102P_reverse [1]: 1.241
Ratio.H.L.normalized.WT_S102P_reverse [1]: 2.3636
